In the NIST ThermoML archive (doi:10.1016/j.tca.2007.03.018):

Experiment: molar heat capacity at saturation pressure

C1C2CC3CC1CC(C14CC5CC(CC(C5)C1)C4)(C2)C3 [1,1'-biadamantane]
Details | molar heat capacity [J/K/mol]
306.17 K, Crystal 3, Small (less than 1 g) adiabatic calorimetry | 347.5
307.06 K, Crystal 3, Small (less than 1 g) adiabatic calorimetry | 348.5
307.82 K, Crystal 3, Small (less than 1 g) adiabatic calorimetry | 349.9
309.07 K, Crystal 3, Small (less than 1 g) adiabatic calorimetry | 351.4
309.47 K, Crystal 3, Small (less than 1 g) adiabatic calorimetry | 352.2
311.07 K, Crystal 3, Small (less than 1 g) adiabatic calorimetry | 354
311.11 K, Crystal 3, Small (less than 1 g) adiabatic calorimetry | 354.6
312.75 K, Crystal 3, Small (less than 1 g) adiabatic calorimetry | 356.8
313.06 K, Crystal 3, Small (less than 1 g) adiabatic calorimetry | 356.9
314.38 K, Crystal 3, Small (less than 1 g) adiabatic calorimetry | 359.1
315.04 K, Crystal 3, Small (less than 1 g) adiabatic calorimetry | 359.6
316.02 K, Crystal 3, Small (less than 1 g) adiabatic calorimetry | 361.4
317.02 K, Crystal 3, Small (less than 1 g) adiabatic calorimetry | 362.4
317.64 K, Crystal 3, Small (less than 1 g) adiabatic calorimetry | 363.7
319 K, Crystal 3, Small (less than 1 g) adiabatic calorimetry | 365.1
319.26 K, Crystal 3, Small (less than 1 g) adiabatic calorimetry | 366
320.52 K, Crystal 3, Small (less than 1 g) adiabatic calorimetry | 367.5
320.8 K, Crystal 3, Small (less than 1 g) adiabatic calorimetry | 367.7
321.41 K, Crystal 3, Small (less than 1 g) adiabatic calorimetry | 368.7
322.3 K, Crystal 3, Small (less than 1 g) adiabatic calorimetry | 370.2
322.43 K, Crystal 3, Small (less than 1 g) adiabatic calorimetry | 370.1
323.19 K, Crystal 3, Small (less than 1 g) adiabatic calorimetry | 371.6
324.05 K, Crystal 3, Small (less than 1 g) adiabatic calorimetry | 372.5
324.09 K, Crystal 3, Small (less than 1 g) adiabatic calorimetry | 372.8
324.98 K, Crystal 3, Small (less than 1 g) adiabatic calorimetry | 374.1
325.67 K, Crystal 3, Small (less than 1 g) adiabatic calorimetry | 375
325.87 K, Crystal 3, Small (less than 1 g) adiabatic calorimetry | 375.2
326.76 K, Crystal 3, Small (less than 1 g) adiabatic calorimetry | 376.5
327.28 K, Crystal 3, Small (less than 1 g) adiabatic calorimetry | 377.6
327.65 K, Crystal 3, Small (less than 1 g) adiabatic calorimetry | 377.8
328.53 K, Crystal 3, Small (less than 1 g) adiabatic calorimetry | 379.5
328.89 K, Crystal 3, Small (less than 1 g) adiabatic calorimetry | 380.4
329.42 K, Crystal 3, Small (less than 1 g) adiabatic calorimetry | 380.9
330.31 K, Crystal 3, Small (less than 1 g) adiabatic calorimetry | 382.3
330.5 K, Crystal 3, Small (less than 1 g) adiabatic calorimetry | 384
331.19 K, Crystal 3, Small (less than 1 g) adiabatic calorimetry | 388.1
332.05 K, Crystal 3, Small (less than 1 g) adiabatic calorimetry | 401.3
332.08 K, Crystal 3, Small (less than 1 g) adiabatic calorimetry | 395.6
332.9 K, Crystal 3, Small (less than 1 g) adiabatic calorimetry | 409.2
333.64 K, Crystal 3, Small (less than 1 g) adiabatic calorimetry | 409.5
333.73 K, Crystal 3, Small (less than 1 g) adiabatic calorimetry | 418.7
334.55 K, Crystal 3, Small (less than 1 g) adiabatic calorimetry | 433.2
335.12 K, Crystal 3, Small (less than 1 g) adiabatic calorimetry | 446.3
335.33 K, Crystal 3, Small (less than 1 g) adiabatic calorimetry | 453.8
336.07 K, Crystal 2, Small (less than 1 g) adiabatic calorimetry | 469.6
336.53 K, Crystal 2, Small (less than 1 g) adiabatic calorimetry | 499.5
336.81 K, Crystal 2, Small (less than 1 g) adiabatic calorimetry | 461.5
337.59 K, Crystal 2, Small (less than 1 g) adiabatic calorimetry | 432.8
337.89 K, Crystal 2, Small (less than 1 g) adiabatic calorimetry | 481.7
338.4 K, Crystal 2, Small (less than 1 g) adiabatic calorimetry | 410.4
339.25 K, Crystal 2, Small (less than 1 g) adiabatic calorimetry | 400.5
339.33 K, Crystal 2, Small (less than 1 g) adiabatic calorimetry | 423.8
340.12 K, Crystal 2, Small (less than 1 g) adiabatic calorimetry | 396.8
340.86 K, Crystal 2, Small (less than 1 g) adiabatic calorimetry | 403.4
340.99 K, Crystal 2, Small (less than 1 g) adiabatic calorimetry | 393.9
341.87 K, Crystal 2, Small (less than 1 g) adiabatic calorimetry | 393.4
342.42 K, Crystal 2, Small (less than 1 g) adiabatic calorimetry | 398.5
342.75 K, Crystal 2, Small (less than 1 g) adiabatic calorimetry | 393.3
343.63 K, Crystal 2, Small (less than 1 g) adiabatic calorimetry | 393.7
343.99 K, Crystal 2, Small (less than 1 g) adiabatic calorimetry | 395.4
344.52 K, Crystal 2, Small (less than 1 g) adiabatic calorimetry | 394.3
345.4 K, Crystal 2, Small (less than 1 g) adiabatic calorimetry | 395
345.57 K, Crystal 2, Small (less than 1 g) adiabatic calorimetry | 396.6
346.29 K, Crystal 2, Small (less than 1 g) adiabatic calorimetry | 395.9
347.15 K, Crystal 2, Small (less than 1 g) adiabatic calorimetry | 397.4
347.17 K, Crystal 2, Small (less than 1 g) adiabatic calorimetry | 396.8
348.06 K, Crystal 2, Small (less than 1 g) adiabatic calorimetry | 397.6
348.72 K, Crystal 2, Small (less than 1 g) adiabatic calorimetry | 398.5
348.95 K, Crystal 2, Small (less than 1 g) adiabatic calorimetry | 398.4
349.84 K, Crystal 2, Small (less than 1 g) adiabatic calorimetry | 399.5
350.3 K, Crystal 2, Small (less than 1 g) adiabatic calorimetry | 400
351.09 K, Crystal 2, Small (less than 1 g) adiabatic calorimetry | 401.1
351.88 K, Crystal 2, Small (less than 1 g) adiabatic calorimetry | 403.6
352.68 K, Crystal 2, Small (less than 1 g) adiabatic calorimetry | 402.9
353.46 K, Crystal 2, Small (less than 1 g) adiabatic calorimetry | 405.6
354.28 K, Crystal 2, Small (less than 1 g) adiabatic calorimetry | 404.8
355.03 K, Crystal 2, Small (less than 1 g) adiabatic calorimetry | 407.3
355.88 K, Crystal 2, Small (less than 1 g) adiabatic calorimetry | 406.9
356.61 K, Crystal 2, Small (less than 1 g) adiabatic calorimetry | 409.2
357.47 K, Crystal 2, Small (less than 1 g) adiabatic calorimetry | 408.7
358.18 K, Crystal 2, Small (less than 1 g) adiabatic calorimetry | 411.3
359.05 K, Crystal 2, Small (less than 1 g) adiabatic calorimetry | 411
359.75 K, Crystal 2, Small (less than 1 g) adiabatic calorimetry | 413.4
360.64 K, Crystal 2, Small (less than 1 g) adiabatic calorimetry | 412.9
361.32 K, Crystal 2, Small (less than 1 g) adiabatic calorimetry | 415.4
362.22 K, Crystal 2, Small (less than 1 g) adiabatic calorimetry | 414.6
362.88 K, Crystal 2, Small (less than 1 g) adiabatic calorimetry | 417.5
363.82 K, Crystal 2, Small (less than 1 g) adiabatic calorimetry | 416.7
364.44 K, Crystal 2, Small (less than 1 g) adiabatic calorimetry | 419.7
365.3 K, Crystal 2, Large sample (1 g) DSC | 422.2
365.4 K, Crystal 2, Small (less than 1 g) adiabatic calorimetry | 418.8
366 K, Crystal 2, Small (less than 1 g) adiabatic calorimetry | 421.6
366.98 K, Crystal 2, Small (less than 1 g) adiabatic calorimetry | 420.9
367.55 K, Crystal 2, Small (less than 1 g) adiabatic calorimetry | 423.3
368.55 K, Crystal 2, Small (less than 1 g) adiabatic calorimetry | 423
